Test results: patent publication US8097759B2, “Inflammatory cytokine release inhibitor” (Institute of Medicinal Molecular Design, Inc., priority 2000, dated 2012)

System: NF-κB activation
Experiment: NF-κB activation reporter assay (pNFκB-Luc luciferase) under TNF-α stimulation
Format: cell-based, human
Conditions: HepG2 or HeLa cells, TNF-α 40 ng/ml, 4 hours; for inhibition at 1 µg/mL / inhibition at 10 µg/mL: Homo sapiens, read-out: The rate of inhibitory activity against NF-κB activation (%)
Method: Using a transfection reagent (Effectene; QIAGEN), the human hepatoma cell strain HepG2 or the human hysterocarcinoma cell strain HeLa was transfected with the firefly luciferase gene (Luc) contained plasmid (pNF κB-Luc Reporter Plasmid; […]) which contained oligonucleotide having five tandem copies of NF-κB binding sequences ([…]) on a upstream region of Luc, according to the QUAGEN's protocol and it was incuvated for 6-24 hours. After addition of TNF-α (40 ng/ml) with or without the test compound, the cells were incuvated for 4 hours, and intracellular luciferase activity was measured with PicaGene LT (TOYO INK MFG Co., Ltd.) and chemical luminescence measurement device ([…]luor Plus; TECAN). The inhibition ratio was measured as a ratio to the value of the luciferase activity without the test compound.

[1] = Concentration of the agent: 1 μg/mL
[2] = Concentration of the agent: 10 μg/mL

Structure (SMILES) | inhibition at 1 µg/mL [1] [%] | inhibition at 10 µg/mL [2] [%] | The rate of inhibitory activity against NF-κB activation (%) [1] [%] | The rate of inhibitory activity against NF-κB activation (%) [2] [%]
O=C(Nc1cccc2ccccc12)c1cc(Cl)ccc1O [Compound 32, 5-Chloro-2-hydroxy-N-(1-naphthyl)benzamide] | 89.3 | 96.3 |  | 
COc1cc(NC(=O)c2cc(Cl)ccc2O)cc2ccccc12 [Compound 33, 5-Chloro-2-hydroxy-N-(4-methoxynaphthalen-2-yl)benzamide] | 95.1 | 99.5 |  | 
COc1cc(NC(=O)c2cc(Cl)ccc2OC(C)=O)cc2ccccc12 [Compound 34, 2-Acetoxy-5-Chloro-N-(4-methoxynaphthalen-2-yl)benzamide] | 90.5 | 98.5 |  | 
CCOC(=O)c1c(NC(=O)c2cc(Cl)ccc2O)sc2c1CCCC2 [Compound 35, 2-(5-Chloro-2-hydroxybenzoyl)amino-4,5,6,7-tetrahydrobenzo[b]-thiophene-3-carboxylic acid ethyl ester] | 88.2 | 85.4 |  | 
O=C(Nc1cc(-c2ccccc2)[nH]n1)c1cc(Br)ccc1O [Compound 36, 5-Bromo-2-hydroxy-N-(5-phenylpyrazol-3-yl)benzamide] | 26.6 | 84.7 |  | 
O=C(Nc1nc(-c2ccccc2)c(-c2ccccc2)o1)c1cc(Br)ccc1O [Compound 38, 5-Bromo-N-(4,5-diphenyloxazol-2-yl)-2-hydroxybenzamide] | -10.1 | 81.8 |  | 
O=C(Nc1nnc(C(F)(F)F)s1)c1ccccc1O [Compound 40, 2-Hydroxy-N-5-[(trifluoromethyl)-1,3,4-thiadiazol-2-yl]benzamide] |  |  | 3.9 | 81.9
O=C(Nc1nnc(C(F)(F)F)s1)c1cc(Br)ccc1O [Compound 41] |  |  | 26.1 | 90.3
O=C(Nc1ccnc(Cl)c1)c1cc(Cl)ccc1O [Compound 42, 5-Chloro-N-(2-chloropyridin-4-yl)-2-hydroxybenzamide] | 14.3 | 92.3 |  | 
COc1cc(Cl)nc(NC(=O)c2cc(Cl)ccc2O)n1 [Compound 43, 5-Chloro-N-(6-chloro-4-methoxypyrimidin-2-yl)-2-hydroxybenzamide] | 25.5 | 78.9 |  | 
CC(=O)Oc1ccc(Cl)cc1C(=O)Nc1cc2ccccc2[nH]1 [Compound 44, 2-Aceoxy-5-chloro-N-(indol-2-yl)benzamide] |  |  | 36.7 | 65.8
CCOC(=O)c1c[nH]c2c(NC(=O)c3ccccc3OC(C)=O)cccc12 [Compound 45, 7-[(2-Acetoxybenzoyl)amino]indole-3-carboxylic acid ethyl ester] | 61.7 | 91.3 |  | 
O=C(Nc1cnc2ccccc2c1)c1cc(Cl)ccc1O [Compound 46, 5-Chloro-2-hydroxy-N-(quinolin-3-yl)benzamide] | -43.7 | 85.7 |  | 
CCn1c2ccccc2c2cc(NC(=O)c3cc(Cl)ccc3O)ccc21 [Compound 47, N-(9-Ethylcarbazol-3-yl)-5-chloro-2-hydroxybenzamide] | 91.3 | 99.4 |  | 
O=C(Nc1cc(C(F)(F)F)cc(C(F)(F)F)c1)c1ccccc1O [Compound 48] | 93.3 | 95.6 |  | 
O=C(Nc1cc(C(F)(F)F)cc(C(F)(F)F)c1)c1cc(F)ccc1O [Compound 49] | 81.5 | 94.3 |  | 
O=C(Nc1cc(C(F)(F)F)cc(C(F)(F)F)c1)c1cc(Cl)ccc1O [Compound 50] | 96.3 | 99.5 |  | 
O=C(Nc1cc(C(F)(F)F)cc(C(F)(F)F)c1)c1cc(Br)ccc1O [Compound 51] | 94.9 | 98.6 |  | 
O=C(Nc1cc(C(F)(F)F)cc(C(F)(F)F)c1)c1cc([N+](=O)[O-])ccc1O [Compound 53] | 92 | 99.2 |  | 
